From PubChem BioAssay (NCI) come the findings set out here.

Each structure is given as a SMILES string.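 In this assay, cells in 96-well plates receive the compound at five concentrations for 48 hours. Endpoints are linearly interpolated between the surrounding concentrations. Abbreviation: GI50, concentration required for 50% inhibition of growth. TGI denotes the concentration required for complete inhibition of growth.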 Bounds are passed on as bounds.

Test systems include MDA-MB-231 breast; HS 578T breast; MALME-3M melanoma; SK-MEL-2 melanoma; BT-549 breast; NCI/ADR-RES ovarian; XF 498 CNS; DMS 114 small cell lung; KM20L2 colon; DLD-1 colon; DMS 273 small cell lung; HOP-18 NSCLC; RXF-631 renal; LXFL 529 NSCLC.
What all share (experiment): NCI-60 cell line screen, 48 h

As for `CCOC(=O)NC(Nc1ccc(Cl)cn1)(C(F)(F)F)C(F)(F)F`, the TGI in the test on MDA-MB-231 breast, in the test on HS 578T breast, with MALME-3M melanoma, with SK-MEL-2 melanoma and with BT-549 breast was more than 100 µM throughout.

Regarding `O=C(O)Cn1c2c(c3c(O)cccc31)C(=O)c1ccccc1-2`, the GI50 is more than 100 µM in the test on MDA-MB-231 breast; more than 100 µM with HS 578T breast; more than 100 µM with MALME-3M melanoma; more than 100 µM in the test on NCI/ADR-RES ovarian; more than 100 µM with SK-MEL-2 melanoma; 12.8 µM in the test with BT-549 breast. Further, the TGI in the test on MDA-MB-231 breast, in the test on HS 578T breast, with MALME-3M melanoma, in the test on NCI/ADR-RES ovarian, in the test with SK-MEL-2 melanoma and in the test on BT-549 breast was more than 100 µM in each case.

Take `CCCOC1OC(CS(=O)(=O)O)C(O)C(O)C1O` (configuration not stated): the TGI in the test on HS 578T breast, in the test with MALME-3M melanoma, with NCI/ADR-RES ovarian, with SK-MEL-2 melanoma and in the test on BT-549 breast was more than 100 µM throughout.

As to `CC(=O)N/C(=C\c1ccc(/C=C(\NC(C)=O)C2=NC3C(=O)c4ccccc4C(=O)C3N2)cc1)C1=NC2C(=O)c3ccccc3C(=O)C2N1` (configuration not stated), the TGI in the test with XF 498 CNS, in the test with DMS 114 small cell lung, in the test with KM20L2 colon, in the test on DLD-1 colon, in the test on DMS 273 small cell lung and with HOP-18 NSCLC was more than 100 µM throughout. In addition, the TGI in the test on RXF-631 renal and in the test on LXFL 529 NSCLC was more than 100 µM in each case.

`C=CCc1cccc(/C=N\N=C(/N)NO)c1O`: the TGI is 9.65 µM in the test with XF 498 CNS; 12.9 µM with DMS 114 small cell lung; 70.9 µM in the test with MALME-3M melanoma; more than 29.3 µM in the test on NCI/ADR-RES ovarian; 31.8 µM with KM20L2 colon; more than 100 µM in the test on DLD-1 colon. The results for the TGI in the test with SK-MEL-2 melanoma, in the test with DMS 273 small cell lung and with HOP-18 NSCLC were more than 54.4 µM, 16.5 µM and more than 100 µM, respectively.

On to `CCCCN=C1OCc2[nH][nH]c(=O)c21`, for which the TGI in the test on XF 498 CNS, in the test with DMS 114 small cell lung, in the test with KM20L2 colon, in the test with DLD-1 colon, with SK-MEL-2 melanoma and in the test on DMS 273 small cell lung was more than 100 µM in each case. Also, the TGI in the test with RXF-631 renal and with LXFL 529 NSCLC was more than 100 µM throughout.

Turning to `Cc1ccc(C2CC(c3cccc(Nc4ccncc4)c3)=NN2c2ccccc2)cc1` (configuration not stated), in the test with BT-549 breast, the GI50 was 1.81 µM and the TGI was found to be 3.37 µM.

As to `CCCCCCCCCCCCCCCC(=O)OC1C(O)C(CO)OC(OC)C1NC(=O)N(CCCl)N=O` (configuration not stated), the TGI in the test on XF 498 CNS turned out to be 30.8 µM; in the test on DMS 114 small cell lung it was 28 µM; in the test with KM20L2 colon it was 32.4 µM; in the test with DLD-1 colon, 31.5 µM; in the test with SK-MEL-2 melanoma, 44.3 µM; in the test on DMS 273 small cell lung, 29.4 µM. Moreover, the TGI came out at 31.3 µM with HOP-18 NSCLC, 32 µM in the test with RXF-631 renal and 25.1 µM in the test with LXFL 529 NSCLC.

On to `O=[As](O)(O)c1ccc2nc3cc([As](=O)(O)O)ccc3nc2c1`, for which the TGI in the test on MDA-MB-231 breast, with HS 578T breast, in the test with MALME-3M melanoma, in the test with NCI/ADR-RES ovarian, in the test on SK-MEL-2 melanoma and with BT-549 breast was more than 100 µM each time.

For the molecule `C[C@]12CC[C@@H]3c4ccc(OCCN5CCCC5)cc4CC[C@H]3[C@@H]1CCC2=O`, the TGI in the test on MDA-MB-231 breast is 68.7 µM; with NCI/ADR-RES ovarian, more than 100 µM; with SK-MEL-2 melanoma, 35.1 µM.
